Data from US7285528B2, “Agonists and antagonists of gonadotropin-releasing hormone-2, and use thereof” (priority 2002, dated 2007).
Where a SMILES comes first, the peptide text is derived from it. [ ]: non-standard residue; d: D form. pGlu = O=C1CC[C@@H](C(=O)O)N1

Experiments:
rat GnRHR = target: T1, rat GnRHR (Rattus norvegicus, UniProt P30969); assay: Inositol phosphate (IP) production, GH3 cells expressing rat GnRHR; type: cell-based; conditions: for sensitivity compared with GnRH-1: rat GnRHR
T1 construct: expressed in transfected cells; host or cells: GH3 cells, retrovirus-mediated infection
T1 sequence (P30969 1-327): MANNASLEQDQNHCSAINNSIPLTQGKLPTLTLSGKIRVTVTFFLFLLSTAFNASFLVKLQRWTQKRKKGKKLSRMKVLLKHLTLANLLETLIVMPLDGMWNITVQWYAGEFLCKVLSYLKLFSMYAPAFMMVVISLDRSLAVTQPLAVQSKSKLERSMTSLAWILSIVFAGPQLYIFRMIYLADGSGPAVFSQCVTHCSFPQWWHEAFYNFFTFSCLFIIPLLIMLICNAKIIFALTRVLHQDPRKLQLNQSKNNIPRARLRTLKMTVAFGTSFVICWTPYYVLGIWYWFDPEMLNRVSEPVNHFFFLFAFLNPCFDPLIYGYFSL
Excerpt: The GnRH receptor, a membrane protein connected with the G protein, activates the G protein when activated by a ligand, and the activated G protein activates phospholipase C and thereby the synthesis of inositol phosphate (IP), which is the second transmitter in cells, is increased. Based on this principle, the activity of a receptor can be investigated by measuring the amount of IP within cells. GH3 cell lines were obtained from the Cell Line Bank at the Cancer Research Center, Seoul National University College of Medicine, located in Seoul, Republic of Korea. The GH3 cell lines were infected with retroviruses comprising genes encoding […]-2, and bfGnRHR-3 which are bullfrog GnRH receptors, and rat GnRHR, and cell lines expressing each of these receptors were obtained. The GH3 cells expressing […]-3, and rat GnRHR were cultured on 12-well plates. After 24 hours, the cells were cultured again for 24 hours in a media containing no inositol, to which H^3-myoinositol was added. […] Thereafter, they were treated with GnRH having a suitable concentration, cultured at 37° C. for another 30 minutes, and then the media was eliminated. The cells were treated with 10 mM of ice-cold formic acid to terminate the reaction, and the cell extracts were mixed with Dowex anionic exchange resins. These resins were washed with distilled water, IP was extracted with 1 M ammonium formate/0.1 M formic acid, and cpm (count per minute) was determined. The GH3 cell lines were infected with retroviruses comprising genes encoding […]-2, and bfGnRHR-3 which are bullfrog GnRH receptors, and rat GnRHR, and cell lines expressing each of these receptors were obtained.

bfGnRHR-3 [1] = assay: Ligand-receptor binding assay, I125-GnRH-2 competition, membranes of GH3 cells expressing bfGnRHR-3; design: species or system bullfrog; conditions: log of IC50 (negative values); competition with I125-GnRH-2, 4° C., 16 hours
Description: To determine the binding affinity between GnRH and GnRH receptors, GnRH-2 was radiolabeled with I^125. The GH3 cells expressing bfGnRHR-1, bfGnRHR-2, bfGnRHR-3, and rat GnRHR constructed in Example 2-3 above were cultured on 100-mm dishes. After 48 hours, the cells were homogenized to obtain cellular membranes, which were then dissolved in binding buffer (40 mM Tris, pH 7.4, 2 mM MgCl2). 20 μg of membrane proteins were reacted with I^125-GnRH-2 at 4° C. for 16 hours. […] After the reaction was completed, 1^125-GnRH-2 bound to the receptors was filtered using a Brandel harvester, and cpm was measured using a γ-counter.
The GH3 cells expressing bfGnRHR-3 obtained from Example 6-1 above were treated with l^125GnRH-2 and GnRH-2 agonists and antagonists at various concentrations to determine the binding affinity of GnRH-2 agonists and antagonists toward the receptors.

bfGnRHR-1 = assay: Inositol phosphate (IP) production, GH3 cells expressing bfGnRHR-1; type: cell-based, bullfrog; conditions: for Log EC50: log of EC50 (negative values), concentration inducing half-maximal stimulation, 30 min
Excerpt: (§1) The GnRH receptor, a membrane protein connected with the G protein, activates the G protein when activated by a ligand, and the activated G protein activates phospholipase C and thereby the synthesis of inositol phosphate (IP), which is the second transmitter in cells, is increased. Based on this principle, the activity of a receptor can be investigated by measuring the amount of IP within cells. GH3 cell lines were obtained from the Cell Line Bank at the Cancer Research Center, Seoul National University College of Medicine, located in Seoul, Republic of Korea. The GH3 cell lines were infected with retroviruses comprising genes encoding […]-2, and bfGnRHR-3 which are bullfrog GnRH receptors, and rat GnRHR, and cell lines expressing each of these receptors were obtained. The GH3 cells expressing […]-3, and rat GnRHR were cultured on 12-well plates. After 24 hours, the cells were cultured again for 24 hours in a media containing no inositol, to which H^3-myoinositol was added. […] Thereafter, they were treated with GnRH having a suitable concentration, cultured at 37° C. for another 30 minutes, and then the media was eliminated. The cells were treated with 10 mM of ice-cold formic acid to terminate the reaction, and the cell extracts were mixed with Dowex anionic exchange resins. These resins were washed with distilled water, IP was extracted with 1 M ammonium formate/0.1 M formic acid, and cpm (count per minute) was determined. The GH3 cell lines were infected with retroviruses comprising genes encoding […]-2, and bfGnRHR-3 which are bullfrog GnRH receptors, and rat GnRHR, and cell lines expressing each of these receptors were obtained. […] In all the cell lines it was observed that when they were treated with GnRH and the agonists, IP was formed in a concentration-dependent manner.

bfGnRHR-2 = assay: Inositol phosphate (IP) production, GH3 cells expressing bfGnRHR-2; type: cell-based, bullfrog; conditions: log of EC50 (negative values), concentration inducing half-maximal stimulation, 30 min
Excerpt: as §1

Primate GnRH-2 receptor = assay: c-fos-luc luciferase activation by agonists, CV-1 cells expressing Primate GnRH-2 receptor; type: cell-based, Primates; conditions: luciferase activation; for Log EC50: log of EC50 (negative values); for Log EC50 / Emax (fold-induction): average of three independent experiments; for Ratio of EC50 values based on EC50 value of GnRH-2: GnRH-2 = 1
Description: Complimentary DNA (cDNA) for a Primate GnRH-2 receptor was obtained from a CV-1 cell genome. […] Plasmids having Primate GnRH-2 receptors where transfected into CV-1 cells. To assay the activity of the receptor, c-fos-luc where a luciferase gene is fused with a c-fos promoter was co-transfected as a probe gene. After 48 hours from transfection, the cells were treated with GnRH-2 agonists and then the activity of luciferase was assayed (Seong et al., Endocrinology vol 144 2003, 454-466). […] Of the GnRH-2 receptors, [[…]]GnRH-2 performed excellently, showing effects about 3 times that of a wild-type ligand, GnRH-2. […] When analogs where the 5th, 7th, and 8th amino acids of [[…]]GnRH-2 are substituted were used, it was observed that their effects were weaker than [[…]]GnRH-2, and therefore it can be seen that it is important to maintain His, Trp, and Tyr that are found at the 5th, 7th, and 8th positions of GnRH-2 as they are (FIG. 3b). Log EC50 values and Emax values of GnRH-2 agonists are average values of experiments that were conducted independently three times. Ratio^a represents the ratio of EC50 values of other GnRH analogs based on EC50 values of GnRH-2.

TSU-Pri cells = assay: Binding of radiolabeled GnRH to TSU-Pri prostate cancer cells and competition; design: species or system human; conditions: for reduction of radiolabeled GnRH-2 binding to TSU-Pri cells by unradiolabeled competitor: unradiolabeled peptide as competitor
Description: The radiolabeled GnRH and the cells were cultured at room temperature for 6 hours, and then washed with PBS (phosphate-buffered saline) several times to eliminate the unbound GnRH. Thereafter, the cells were isolated and radioactivity from the cells was measured using a γ-counter.

bfGnRHR-3 [2] = assay: Inositol phosphate (IP) production, GH3 cells expressing bfGnRHR-3; type: cell-based, bullfrog; conditions: log of EC50 (negative values), concentration inducing half-maximal stimulation, 30 min
Excerpt: as §1

[3] = system: luteinizing hormone and testosterone secretion; assay: GnRH-2 agonist-induced serum LH and testosterone levels in male rat (radioimmunoassay); type: in vivo; conditions: 10 μg injected
Description: Example 3: GnRH-2 Agonist-induced serum LH and testosterone levels [D-Ala^6]GnRH-2 was dissolved in saline at a concentration of 100 μg/ml, and then 10 μg of [D-Ala^6]GnRH-2 was injected into the cervix of a male rat (Sprague Dawley rat having a weight of approximately 100 g). 1, 2, 4, and 8 hours after the injection, serum was obtained from the rat. The concentration of luteinizing hormone and testosterone present in the serum was measured by radioimmunoassay.

[4] = cells expressing rat GnRH receptor

| sensitivity compared with GnRH-1 (rat GnRHR) | Binding affinity (log IC50 value) (bfGnRHR-3 [1]) | Log EC50 (bfGnRHR-1) | Log EC50 (bfGnRHR-2) | Log EC50 (Primate GnRH-2 receptor) | Ratio of EC50 values based on EC50 value of GnRH-2 (Primate GnRH-2 receptor) | Log EC50 (bfGnRHR-3 [2]) | fold higher sensitivity than GnRH-2 (rat GnRHR; [4]) | fold lower sensitivity than GnRH-1 (rat GnRHR; [4]) | Structure (SMILES) | Emax (fold-induction) (Primate GnRH-2 receptor) | binding of radiolabeled ligand to TSU-Pri cells (TSU-Pri cells; I125-radiolabeled peptide, room temperature, 6 hours) | reduction of radiolabeled GnRH-2 binding to TSU-Pri cells by unradiolabeled competitor (TSU-Pri cells) | fold lower activating concentration than GnRH-2 (bfGnRHR-1) | serum luteinizing hormone (LH) ([3]; male Sprague Dawley rat about 100 g, serum 1, 2, 4, 8 hours) | time of serum testosterone peak after injection ([3]; male rat) | serum testosterone ([3]; male rat, compared with before the injection) | fold lower effect than GnRH-2 (Primate GnRH-2 receptor) |
| --- | --- | --- | --- | --- | --- | --- | --- | --- | --- | --- | --- | --- | --- | --- | --- | --- | --- |
| a sensitivity lower than 10-fold | −8.63 ± 0.14 | −9.41 ± 0.13 | −8.98 ± 0.14 | −8.39 ± 0.10 | 1 | −9.51 ± 0.10 | – | – | NC(=O)CNC(=O)[C@@H]1CCCN1C(=O)[C@H](Cc1ccc(O)cc1)NC(=O)[C@H](Cc1c[nH]c2ccccc12)NC(=O)CNC(=O)[C@H](Cc1c[nH]cn1)NC(=O)[C@H](CO)NC(=O)[C@H](Cc1c[nH]c2ccccc12)NC(=O)[C@H](Cc1c[nH]cn1)NC(=O)[C@@H]1CCC(=O)N1 [GnRH-2] ([pGlu]HWSHGWYPG-NH2) | 11.74 ± 0.31 fold-induction | binding with cells was observed | the binding was reduced | – | – | – | – | – |
| a sensitivity lower than 10-fold | −9.83 ± 0.14 | −9.91 ± 0.13 | −9.91 ± 0.19 | −8.81 ± 0.12 | 0.38 | −9.89 ± 0.10 | 5 fold | 3.5 fold | C[C@@H](NC(=O)[C@H](Cc1c[nH]cn1)NC(=O)[C@H](CO)NC(=O)[C@H](Cc1c[nH]c2ccccc12)NC(=O)[C@H](Cc1c[nH]cn1)NC(=O)[C@@H]1CCC(=O)N1)C(=O)N[C@@H](Cc1c[nH]c2ccccc12)C(=O)N[C@@H](Cc1ccc(O)cc1)C(=O)N1CCC[C@H]1C(=O)NCC(N)=O [[D-Ala^6]GnRH-2, p-Glu-His-Trp-Ser-His-D-Ala-Trp-Tyr-Pro-GlyNH2] ([pGlu]HWSH[dA]WYPG-NH2) | 11.84 ± 0.47 fold-induction | – | reduced in a concentration-dependent manner | ~8 fold | an increase of luteinizing hormone (LH) was observed in only one hour | 4 h | significantly high value even after 8 hours | – |
| – | −8.10 ± 0.11 | −9.40 ± 0.12 | −9.21 ± 0.13 | −8.31 ± 0.09 | 1.20 | −9.22 ± 0.11 | – | – | NC(=O)CNC(=O)[C@@H]1CCCN1C(=O)[C@H](Cc1ccc(O)cc1)NC(=O)[C@H](Cc1c[nH]c2ccccc12)NC(=O)[C@@H](Cc1c[nH]c2ccccc12)NC(=O)[C@H](Cc1c[nH]cn1)NC(=O)[C@H](CO)NC(=O)[C@H](Cc1c[nH]c2ccccc12)NC(=O)[C@H](Cc1c[nH]cn1)NC(=O)[C@@H]1CCC(=O)N1 [[D-Trp^6]GnRH-2] ([pGlu]HWSH[dW]WYPG-NH2) | 11.20 ± 0.32 fold-induction | – | – | – | – | – | – | ~1.2 fold |
